Results reported in patent publication US20240000872A1, “NOVEL BACTERIOPHAGE THAT LYSES ACINETOBACTER GENUS BACTERIA HAVING RESISTANCE TO ANTIBIOTICS” (priority 2020, published 2024).

Tested on: Acinetobacter baumannii strains
Assay: Antibiotic susceptibility test (CLSI disk diffusion test method, read per CLSI 2016); for antibiotic susceptibility S/I/R: key: ‘S’ means susceptible; ‘I’ means intermediate; ‘R’ means resistant
Format: cell-based
Parameters: antibiotic susceptibility test value / susceptibility test value (number given before S/I/R) / antibiotic susceptibility value: unit not given here

## CCN1CCN(C(=O)N[C@@H](C(=O)N[C@@H]2C(=O)N3[C@@H]2SC(C)(C)[C@@H]3C(=O)O)c2ccccc2)C(=O)C1=O [Piperalillinc]
Host strain YMC14/06/R2359
  antibiotic susceptibility S/I/R: R
  antibiotic susceptibility value: 128
Host strain YMC14/08/R1169
  antibiotic susceptibility S/I/R: R
  antibiotic susceptibility value: 128
Host strain YMC14/08/T90
  antibiotic susceptibility S/I/R: R
  antibiotic susceptibility value: 128
Host strain YMC15/02/R436
  antibiotic susceptibility S/I/R: R
  antibiotic susceptibility value: 128
Host strain YMC15/02/T28
  antibiotic susceptibility S/I/R: R
  antibiotic susceptibility value: 128
Host strain YMC15/03/R1604
  antibiotic susceptibility S/I/R: R
  antibiotic susceptibility value: 128
Host strain YMC15/09/R1869
  antibiotic susceptibility S/I/R: R
  antibiotic susceptibility value: 128
Host strain YMC16/01/P11
  antibiotic susceptibility S/I/R: R
  antibiotic susceptibility value: 128
Host strain YMC16/01/R123
  antibiotic susceptibility S/I/R: R
  antibiotic susceptibility value: 128
Host strain YMC16/01/R198
  antibiotic susceptibility S/I/R: R
  antibiotic susceptibility value: 128
Host strain YMC16/01/R353
  antibiotic susceptibility S/I/R: R
  antibiotic susceptibility value: 128
Host strain YMC16/01/R380
  antibiotic susceptibility S/I/R: R
  antibiotic susceptibility value: 128
Host strain YMC16/01/R397
  antibiotic susceptibility S/I/R: R
  antibiotic susceptibility value: 128
Host strain YMC16/01/R405
  antibiotic susceptibility S/I/R: R
  antibiotic susceptibility value: 128
Host strain YMC16/03/R4461
  antibiotic susceptibility S/I/R: R
  antibiotic susceptibility value: 128
Host strain YMC16/05/R2210
  antibiotic susceptibility S/I/R: R
  antibiotic susceptibility value: 128
Host strain YMC16/07/R2512
  antibiotic susceptibility S/I/R: R
  antibiotic susceptibility value: 128
Host strain YMC16/09/R2471
  antibiotic susceptibility S/I/R: R
  antibiotic susceptibility value: 128
Host strain YMC16/10/R2537
  antibiotic susceptibility S/I/R: R
  antibiotic susceptibility value: 128
Host strain YMC16/12/B11422
  antibiotic susceptibility S/I/R: R
  antibiotic susceptibility value: 128
Host strain YMC16/12/B11449
  antibiotic susceptibility S/I/R: R
  antibiotic susceptibility value: 128
Host strain YMC16/12/B13325
  antibiotic susceptibility S/I/R: R
  antibiotic susceptibility value: 128
Host strain YMC16/12/P503
  antibiotic susceptibility S/I/R: R
  antibiotic susceptibility value: 128
Host strain YMC16/12/R4637
  antibiotic susceptibility S/I/R: R
  antibiotic susceptibility value: 128
Host strain YMC17/01/B8053
  antibiotic susceptibility S/I/R: R
  antibiotic susceptibility value: 128
Host strain YMC17/01/B10087
  antibiotic susceptibility S/I/R: R
  antibiotic susceptibility value: 128
Host strain YMC17/01/B12075
  antibiotic susceptibility S/I/R: R
  antibiotic susceptibility value: 128
Host strain YMC17/01/B13454
  antibiotic susceptibility S/I/R: R
  antibiotic susceptibility value: 128
Host strain YMC17/01/P518
  antibiotic susceptibility S/I/R: R
  antibiotic susceptibility value: 128
Host strain YMC17/01/R2812
  antibiotic susceptibility S/I/R: R
  antibiotic susceptibility value: 128
Host strain YMC17/02/B14
  antibiotic susceptibility S/I/R: R
  antibiotic susceptibility value: 128
Host strain YMC17/02/B87
  antibiotic susceptibility S/I/R: R
  antibiotic susceptibility value: 128
Host strain YMC17/02/B721
  antibiotic susceptibility S/I/R: R
  antibiotic susceptibility value: 128
Host strain YMC17/02/B4039
  antibiotic susceptibility S/I/R: R
  antibiotic susceptibility value: 128
Host strain YMC17/02/B4520
  antibiotic susceptibility S/I/R: R
  antibiotic susceptibility value: 128
Host strain YMC17/02/B4864
  antibiotic susceptibility S/I/R: S
  antibiotic susceptibility value: 8
Host strain YMC17/02/B8414
  antibiotic susceptibility S/I/R: R
  antibiotic susceptibility value: 128
Host strain YMC17/02/P523
  antibiotic susceptibility S/I/R: R
  antibiotic susceptibility value: 128
Host strain YMC17/02/R541
  antibiotic susceptibility S/I/R: R
  antibiotic susceptibility value: 128
Host strain YMC17/02/R2392
  antibiotic susceptibility S/I/R: R
  antibiotic susceptibility value: 128
Host strain YMC17/03/B4730
  antibiotic susceptibility S/I/R: R
  antibiotic susceptibility value: 128
Host strain YMC17/03/B5000
  antibiotic susceptibility S/I/R: R
  antibiotic susceptibility value: 128
Host strain YMC17/03/P971
  antibiotic susceptibility S/I/R: R
  antibiotic susceptibility value: 128
Host strain YMC17/03/R348
  antibiotic susceptibility S/I/R: R
  antibiotic susceptibility value: 128
Host strain YMC17/03/R585
  antibiotic susceptibility S/I/R: R
  antibiotic susceptibility value: 128
Host strain YMC17/03/R1888
  antibiotic susceptibility S/I/R: R
  antibiotic susceptibility value: 128
Host strain YMC17/03/R3279
  antibiotic susceptibility S/I/R: R
  antibiotic susceptibility value: 128
Host strain YMC17/03/R4077
  antibiotic susceptibility S/I/R: R
  antibiotic susceptibility value: 128
Host strain YMC17/03/R4607
  antibiotic susceptibility S/I/R: R
  antibiotic susceptibility value: 128
Host strain YMC17/04/R488
  antibiotic susceptibility S/I/R: R
  antibiotic susceptibility value: 128
Host strain YMC17/04/R640
  antibiotic susceptibility S/I/R: R
  antibiotic susceptibility value: 128
Host strain YMC/17/05/R1095
  antibiotic susceptibility S/I/R: R
  antibiotic susceptibility value: 128
